# Read-outs that look alike come from different tables or passages of the source.
# Target: T1, STAT6 (Homo sapiens, UniProt P42226)
# T1 construct: endogenous in cells; host or cells: MOLM-16, KU-812, SKNO1, MB231, L1236
# T1 sequence (P42226 1-847): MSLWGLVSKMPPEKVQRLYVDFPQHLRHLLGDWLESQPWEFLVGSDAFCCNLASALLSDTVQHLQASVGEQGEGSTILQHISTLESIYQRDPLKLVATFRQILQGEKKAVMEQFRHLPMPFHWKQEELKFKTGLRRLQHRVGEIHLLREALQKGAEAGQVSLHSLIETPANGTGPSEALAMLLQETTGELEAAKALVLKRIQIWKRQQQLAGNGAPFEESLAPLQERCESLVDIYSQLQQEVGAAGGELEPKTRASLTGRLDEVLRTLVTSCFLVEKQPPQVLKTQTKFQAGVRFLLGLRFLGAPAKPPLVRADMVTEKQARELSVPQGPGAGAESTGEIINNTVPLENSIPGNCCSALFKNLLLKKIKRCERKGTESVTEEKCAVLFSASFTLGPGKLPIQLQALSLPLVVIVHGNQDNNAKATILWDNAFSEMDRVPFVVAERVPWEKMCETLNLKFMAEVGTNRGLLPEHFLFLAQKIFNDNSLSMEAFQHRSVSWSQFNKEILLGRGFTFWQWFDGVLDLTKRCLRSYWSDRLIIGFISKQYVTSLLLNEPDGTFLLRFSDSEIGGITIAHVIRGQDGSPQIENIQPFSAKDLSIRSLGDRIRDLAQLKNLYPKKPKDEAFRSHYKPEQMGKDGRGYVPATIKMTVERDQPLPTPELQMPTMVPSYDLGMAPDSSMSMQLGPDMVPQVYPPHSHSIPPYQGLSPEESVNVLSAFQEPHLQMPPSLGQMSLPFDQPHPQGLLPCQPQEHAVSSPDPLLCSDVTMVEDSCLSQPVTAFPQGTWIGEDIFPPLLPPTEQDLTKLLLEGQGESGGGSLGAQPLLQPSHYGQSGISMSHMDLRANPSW
# Assay: Immunoblotting (Western blot) analysis of STAT6 degradation efficiency of degraders in treated cells
# Type: cell-based
# How it was run: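 Cells (~1 million per point) treated with compounds at indicated concentrations and times, lysed in RIPA with protease/phosphatase inhibitors; 20-40 μg protein run on SDS-PAGE and blotted to PVDF. STAT6 or STAT5 rabbit mAbs with GAPDH loading control, IRDye secondaries; near-infrared fluorescence scan, band intensity quantified.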
# [1] = MOLM-16 cells, numeric bound, read-out: DC50 S6 MOLM-16
# [2] = MOLM-16 cells, class symbols, read-out: DC50 S6 MOLM-16
# [3] = L1236 cells, read-out: DC50 S6 L1236
SMILES,DC50 [2] [µM],further results
"CC(C)(C)[C@H](NC(=O)c1cc2cc(C(F)(F)P(=O)(O)O)ccc2s1)C(=O)N1C[C@H](OCCCCCC#Cc2ccc3c(c2)CN(C2CCC(=O)NC2=O)C3=O)C[C@H]1C(=O)N1CCC[C@H](c2ccccc2)C1 (stereo partly drawn) [Compound 603, ((2-(((2S)-1-((2S,4R)-4-((7-(2-(2,6-dioxopiperidin-3-yl)-1-oxoisoindolin-5-yl)hept-6-yn-1-yl)oxy)-2-((R)-3-phenylpiperidine-1-carbonyl)pyrrolidin-1-yl)-3,3-dimethyl-1-oxobutan-2-yl)carbamoyl)benzo[b]thiophen-5-yl)difluoromethyl)phosphonic acid]",,DC50 [1]: > 0.3 µM
"CC(C)(C)[C@H](NC(=O)c1cc2cc(C(F)(F)P(=O)(O)O)ccc2s1)C(=O)N1C[C@@H](OCC(=O)NCCCCC#Cc2ccc3c(c2)C(=O)N(C2CCC(=O)NC2=O)C3=O)C[C@H]1C(=O)N1CCC[C@H](c2ccccc2)C1 (stereo partly drawn) [Compound 500, ((2-(((2S)-1-((2S,4S)-4-(2-((6-(2-(2,6-dioxopiperidin-3-yl)-1,3-dioxoisoindolin-5-yl)hex-5-yn-1-yl)amino)-2-oxoethoxy)-2-((R)-3-phenylpiperidine-1-carbonyl)pyrrolidin-1-yl)-3,3-dimethyl-1-oxobutan-2-yl)carbamoyl)benzo[b]thiophen-5-yl)difluoromethyl)phosphonic acid]",> 10,
"Cc1ncsc1-c1ccc([C@H](C)NC(=O)[C@@H]2C[C@@H](O)CN2C(=O)[C@@H](NC(=O)CCCCCCCNC(=O)COc2ccc3c(c2)CN(C(=O)[C@@H](NC(=O)c2cc4cc(C(F)(F)P(=O)(O)O)ccc4s2)C(C)(C)C)[C@H](C(=O)N2CCC[C@H](c4ccccc4)C2)C3)C(C)(C)C)cc1 [Compound 476, (difluoro(2-(((S)-1-((S)-7-(2-((8-(((S)-1-((2S,4R)-4-hydroxy-2-(((S)-1-(4-(4-methylthiazol-5-yl)phenyl)ethyl)carbamoyl)pyrrolidin-1-yl)-3,3-dimethyl-1-oxobutan-2-yl)amino)-8-oxooctyl)amino)-2-oxoethoxy)-3-((R)-3-phenylpiperidine-1-carbonyl)-3,4-dihydroisoquinolin-2(1H)-yl)-3,3-dimethyl-1-oxobutan-2-yl)carbamoyl)benzo[b]thiophen-5-yl)methyl)phosphonic acid]",> 10,
"CC(C)(C)[C@H](NC(=O)c1cc2cc(C(F)(F)P(=O)(O)O)ccc2s1)C(=O)N1CCN(C(=O)CC(=O)NCC#Cc2cccc3c2C(=O)N(C2CCC(=O)NC2=O)C3=O)C[C@H]1C(=O)N1CCO[C@H](c2ccccc2)C1 (stereo partly drawn) [Compound 507, ((2-(((2S)-1-((2S)-4-(3-((3-(2-(2,6-dioxopiperidin-3-yl)-1,3-dioxoisoindolin-4-yl)prop-2-yn-1-yl)amino)-3-oxopropanoyl)-2-((R)-2-phenylmorpholine-4-carbonyl)piperazin-1-yl)-3,3-dimethyl-1-oxobutan-2-yl)carbamoyl)benzo[b]thiophen-5-yl)difluoromethyl)phosphonic acid]",> 10,
"CC(C)(C)[C@H](NC(=O)c1cc2cc(C(F)(F)P(=O)(O)O)ccc2s1)C(=O)N1Cc2cc(OCC(=O)NCCC#Cc3ccc4c(c3)C(=O)N(C3CCC(=O)NC3=O)C4=O)ccc2C[C@H]1C(=O)N1CCO[C@H](c2ccccc2)C1 (stereo partly drawn) [Compound 538, ((2-(((2S)-1-((3S)-7-(2-((4-(2-(2,6-dioxopiperidin-3-yl)-1,3-dioxoisoindolin-5-yl)but-3-yn-1-yl)amino)-2-oxoethoxy)-3-((R)-2-phenylmorpholine-4-carbonyl)-3,4-dihydroisoquinolin-2(1H)-yl)-3,3-dimethyl-1-oxobutan-2-yl)carbamoyl)benzo[b]thiophen-5-yl)difluoromethyl)phosphonic acid]",> 10,
"Cc1ncsc1-c1ccc([C@H](C)NC(=O)[C@@H]2C[C@@H](O)CN2C(=O)[C@@H](NC(=O)CCCCCCCCNC(=O)COc2ccc3c(c2)CN(C(=O)[C@@H](NC(=O)c2cc4cc(C(F)(F)P(=O)(O)O)ccc4s2)C(C)(C)C)[C@H](C(=O)N2CCO[C@H](c4ccccc4)C2)C3)C(C)(C)C)cc1 [Compound 468, (difluoro(2-(((S)-1-((S)-7-(2-((9-(((S)-1-((2S,4R)-4-hydroxy-2-(((S)-1-(4-(4-methylthiazol-5-yl)phenyl)ethyl)carbamoyl)pyrrolidin-1-yl)-3,3-dimethyl-1-oxobutan-2-yl)amino)-9-oxononyl)amino)-2-oxoethoxy)-3-((R)-2-phenylmorpholine-4-carbonyl)-3,4-dihydroisoquinolin-2(1H)-yl)-3,3-dimethyl-1-oxobutan-2-yl)carbamoyl)benzo[b]thiophen-5-yl)methyl)phosphonic acid]",> 10,DC50 [3]: > 10 µM
CC(C)(C)[C@H](NC(=O)c1cc2cc(C(F)(F)P(=O)(O)O)ccc2s1)C(=O)N1C[C@@H](OCCCCCCC#Cc2cccc3c2CN(C2CCC(=O)NC2=O)C3=O)C[C@H]1C(=O)N1CCOC(c2cccnc2)C1 (stereo partly drawn) [Compound 609],,DC50 [1]: > 0.3 µM
"Cc1cc([C@H](C(=O)N2C[C@H](O)C[C@H]2C(=O)N[C@@H](CC(=O)NCCOCCOCCNC(=O)CO[C@@H]2C[C@@H](C(=O)N(C)c3ccc(Br)cc3)N(C(=O)[C@@H](NC(=O)c3cc4cc(C(F)(F)P(=O)(O)O)ccc4s3)C(C)(C)C)C2)c2ccc(-c3scnc3C)cc2)C(C)C)on1 [Compound 424, ((2-(((S)-1-((2S,4R)-2-((4-bromophenyl)(methyl)carbamoyl)-4-(((S)-1-((2S,4R)-4-hydroxy-1-((R)-3-methyl-2-(3-methylisoxazol-5-yl)butanoyl)pyrrolidin-2-yl)-3-(4-(4-methylthiazol-5-yl)phenyl)-1,5,16-trioxo-9,12-dioxa-2,6,15-triazaheptadecan-17-yl)oxy)pyrrolidin-1-yl)-3,3-dimethyl-1-oxobutan-2-yl)carbamoyl)benzo[b]thiophen-5-yl)difluoromethyl)phosphonic acid]",> 10,
"Cc1cc([C@H](C(=O)N2C[C@H](O)C[C@H]2C(=O)N[C@@H](CC(=O)NCCCCCCCCCCNC(=O)CCN(C(=O)[C@@H]2CCCN2C(=O)[C@@H](NC(=O)c2cc3cc(C(F)(F)P(=O)(O)O)ccc3s2)C(C)(C)C)c2ccc(Br)cc2)c2ccc(-c3scnc3C)cc2)C(C)C)on1 [Compound 407, ((2-(((S)-1-((S)-2-((4-bromophenyl)(3-((10-((S)-3-((2S,4R)-4-hydroxy-1-((R)-3-methyl-2-(3-methylisoxazol-5-yl)butanoyl)pyrrolidine-2-carboxamido)-3-(4-(4-methylthiazol-5-yl)phenyl)propanamido)decyl)amino)-3-oxopropyl)carbamoyl)pyrrolidin-1-yl)-3,3-dimethyl-1-oxobutan-2-yl)carbamoyl)benzo[b]thiophen-5-yl)difluoromethyl)phosphonic acid]",,"DC50 (MB231 cells, read-out: DC50 S6 MB231): > 10 µM"
"Cc1ncsc1-c1ccc([C@H](C)NC(=O)[C@@H]2C[C@@H](O)CN2C(=O)[C@@H](NC(=O)CCCCCCCNC(=O)CC(=O)N2CCN(C(=O)[C@@H](NC(=O)c3cc4cc(C(F)(F)P(=O)(O)O)ccc4s3)C(C)(C)C)[C@H](C(=O)N3CCO[C@H](c4ccccc4)C3)C2)C(C)(C)C)cc1 [Compound 449, (difluoro(2-(((S)-1-((S)-4-(3-((8-(((S)-1-((2S,4R)-4-hydroxy-2-(((S)-1-(4-(4-methylthiazol-5-yl)phenyl)ethyl)carbamoyl)pyrrolidin-1-yl)-3,3-dimethyl-1-oxobutan-2-yl)amino)-8-oxooctyl)amino)-3-oxopropanoyl)-2-((R)-2-phenylmorpholine-4-carbonyl)piperazin-1-yl)-3,3-dimethyl-1-oxobutan-2-yl)carbamoyl)benzo[b]thiophen-5-yl)methyl)phosphonic acid]",> 10,DC50 [3]: > 10 µM

# From US20230295197A1, “STAT5 and STAT6 Degraders and Uses Thereof” (REGENTS OF THE UNIVERSITY OF MICHICAN, priority 2022, published 2023)
